Patent US9908854B2, “Process for synthesizing ergothioneine and related compounds” (University of Cape Town, priority 2014, dated 2018)
Values joined by “and” are separate entries in the source; they are usually repeats but may differ in a detail not shown here. Identical values can stand only once. “Also recorded” adds a separate entry of the source.

Key:
[1] = system: crude M. smegmatis enzymes (ESH pathway, EgtE); test: Biotransformation of substrates to ergothioneine using crude M. smegmatis enzymes preparation (LC/MS); format: biochemical, Mycobacterium smegmatis; details: for concentration of ESH produced: 50 mM substrate, crude M. smegmatis cell free extract, 37° C., pH=7.4, 1 day, LCMS, control (endogenous ESH) 5.70 ng/ml
Procedure: FIG. 1 In vitro reconstitution of ESH; 100 μl reactions containing 20 mM Tris HCl pH=7.4, 20 mM NaCl, 0.2 Mm FeSO4.7H2O, 0.5 mM mercaptoethanol, 83 μl of crude M. smeg enzymes and 50 mM of either (a) S-(β-amino-β-carboxyethyl)ergothioneine sulfide (15); (b) S-(β-amino-β-carboxyethyl)ergothioneine sulfoxide (II) and (c) control. The crude enzyme reactions were incubated for 1 day at 37° C. followed by analysis by LC/MS.
The enzymatic and non-enzymatic PLP mediated synthesis of ESH from the synthetic sulfoxide (II) was compared. To this end, crude M. smegmatis cell free extracts were isolated from cultures grown and harvested at the late exponential phase, characterised by high enzymatic activity.^10
The crude enzymatic transformation of the ESH biosynthetic pathway precursors, including sulfide and sulfoxide variants were evaluated by the concomitant production of ESH in excess of basal levels as determined by LCMS. ESH precursor metabolites (β-amino-β-carboxyethyl)ergothioneine sulfide (15) and (β-amino-β-carboxyethyl)ergothioneine sulfoxide (II) were incubated with the crude cell free extract at 37° C., pH=7.4 for 1 day, and analyzed by LCMS.
The control reaction containing only the crude M. smegmatis cell free extract was also treated under the same conditions as the metabolites. The concentration of ESH thus obtained was 5.70 (±0.30) ng/ml, which was equated to that of endogenous ESH. This concentration was above the limit of detection (0.78 ng/ml), thus any increase in the concentration of ESH in the experiment above 1 ng/ml is considered significant enough to be ascribed to basal levels or biotransformation of the respective substrates by the crude endogenous enzymes of the ESH pathway. […]

[2] = Non enzymatic cleavage of C-S bond catalysed by PLP (LC/MS); details: 50 mM substrate plus 50 mM PLP, 20 mM Tris HCl pH=7.4, 37° C., 24 h
Procedure: FIG. 2 Non enzymatic production of ESH catalysed by PLP. TIC extracted for ESH and PLP using S-(β-amino-β-carboxyethyl)ergothioneine sulfide (15), S-(β-amino-β-carboxyethyl)ergothioneine sulfoxide (II) and S-(β-amino-β-carboxyethyl)ergothioneine sulfone (III).
FIG. 3 Non enzymatic production of ESH graph contain; 100 μl reactions containing 20 mM Tris HCl pH=7.4, 20 mM NaCl, 50 mM of either (1) sulfide (15) plus PLP, (2) sulfoxide (II) plus PLP, (3) sulfone (III) plus PLP respectively. Reaction time: 24 h.
Three sets of 100 μl reactions (1-3) containing 20 mM Tris HCl pH=7.4, and 50 mM of either (1) S-(β-amino-β-carboxyethyl)ergothioneine sulfide (15) and PLP (2) S-(β-amino-β-carboxyethyl)ergothioneine sulfoxide (II) and PLP or (3) S-(β-amino-βcarboxyethyl)ergothioneine sulfone (III) and PLP. The non-enzymatic reactions were incubated for 1 day at 37° C., followed by lyophilisation and subsequent reconstitution in LC buffer before analysis by LC/MS (FIGS. 2 and 3).

[3] = system: crude cell free extracts of Neurospora Crassa; details: synthetic sulfoxide of the 1974 prior synthesis; cited from earlier work

Compound	stability to Egt E enzyme mediated C-S cleavage [1]	formation of ESH (non-enzymatic, PLP) [2]	concentration of ESH produced [1]	cleavage to ESH by crude cell free extracts [3]
C[N+](C)(C)[C@@H](Cc1c[nH]c(S(=O)(=O)C[C@H](N)C(=O)O)n1)C(=O)O [III]	stable	did not produce ESH at all		
C[N+](C)(C)[C@@H](Cc1c[nH]c([S+]([O-])C[C@H](N)C(=O)O)n1)C(=O)O (stereo partly shown) [II]		no ESH at all; also recorded: did not produce ESH at all	22.6 ng/mL	extensively cleaved to ESH
C[N+](C)(C)[C@@H](Cc1c[nH]c(SC[C@H](N)C(=O)O)n1)C(=O)O [compound 15, S-(β-amino-β-carboxyethyl)ergothioneine sulfide]		96.3 ng/mL and 96.34 ng/mL	19.2 ng/mL	
